Data taken from the NIST ThermoML archive (doi:10.1021/acs.jced.8b00058).
Values joined by “and” are separate entries in the source; they are usually repeats but may differ in a detail not shown here. Equal entries are not always repeated.

Tests used:
[1] = mn = molality of the nth substance listed, in mol/kg; details: 100 kPa, Liquid; for speed of sound: Frequency=3 MHz, Single path-length method; for mass density: Vibrating tube method
[2] = 100 kPa, Liquid, Frequency=3 MHz, Single path-length method

OCCO [1,2-ethanediol] + O
[1]
Details	mass density, m1 = 0.09889 [kg/m3]	mass density, m1 = 0.1989 [kg/m3]	mass density, m1 = 0.2997 [kg/m3]	mass density, m1 = 0.3948 [kg/m3]	mass density, m1 = 0.5016 [kg/m3]	speed of sound, m1 = 0.09889 [m/s]	speed of sound, m1 = 0.1989 [m/s]	speed of sound, m1 = 0.2997 [m/s]	speed of sound, m1 = 0.3948 [m/s]	speed of sound, m1 = 0.5016 [m/s]
293.15 K	999.059	999.884	1000.68	1001.4	1002.2	1485.5	1488.3	1491.2	1493.9	1496.8
298.15 K	997.877	998.688	999.473	1000.18	1000.96	1498.9	1501.7	1504.3	1506.6	1509.1
303.15 K	996.471	997.262	998.033	998.733	999.48	1511.1	1513.8	1516.2	1518.7	1521.2
308.15 K	994.84	995.613	996.362	997.038	997.764	1521.8	1524	1526.2	1528.3	1530.3

Nc1ccccc1 [aniline] + O
[1]
Details	mass density, 293.15 K	mass density, 298.15 K	mass density, 303.15 K	mass density, 308.15 K	speed of sound, 293.15 K [m/s]	speed of sound, 298.15 K [m/s]	speed of sound, 303.15 K [m/s]	speed of sound, 308.15 K
m1 = 0.1	998.568 kg/m3 and 998.57 kg/m3	997.42 kg/m3 and 997.421 kg/m3	995.98 kg/m3 and 995.983 kg/m3	994.35 kg/m3 and 994.351 kg/m3	1483.3	1497.2	1509.5	1520.5 m/s
m1 = 0.2	998.97 kg/m3 and 998.972 kg/m3	997.81 kg/m3 and 997.813 kg/m3	996.33 kg/m3 and 996.326 kg/m3	994.68 kg/m3 and 994.684 kg/m3	1485	1498.7	1510.8	1521.9 m/s and 1520.5 m/s
m1 = 0.3	999.36 kg/m3 and 999.363 kg/m3	998.21 kg/m3 and 998.208 kg/m3	996.705 kg/m3 and 996.71 kg/m3	995.035 kg/m3 and 995.04 kg/m3	1486.8	1500	1512.1	1521.9 m/s and 1523.3 m/s
m1 = 0.4	999.783 kg/m3 and 999.78 kg/m3	998.592 kg/m3 and 998.59 kg/m3	997.079 kg/m3 and 997.08 kg/m3	995.385 kg/m3 and 995.39 kg/m3	1488.6	1502	1513.5	1523.6 m/s and 1524.7 m/s

OCCOCCO [diethylene glycol] + O
[1]
Details	mass density, m1 = 0.09849 [kg/m3]	mass density, m1 = 0.1974 [kg/m3]	mass density, m1 = 0.295 [kg/m3]	mass density, m1 = 0.4101 [kg/m3]	mass density, m1 = 0.5006 [kg/m3]	speed of sound, m1 = 0.09849 [m/s]	speed of sound, m1 = 0.1974 [m/s]	speed of sound, m1 = 0.295 [m/s]	speed of sound, m1 = 0.4101 [m/s]	speed of sound, m1 = 0.5006 [m/s]
293.15 K	999.647	1001.03	1002.36	1003.86	1004.99	1487.7	1493.1	1498.1	1504.1	1508.3
298.15 K	998.458	999.78	1001.03	1002.49	1003.59	1501.2	1506	1510.8	1516.2	1520.3
303.15 K	997.071	998.395	999.643	1001.05	1002.15	1513.1	1517.6	1522	1526.9	1530.6
308.15 K	995.44	996.778	998.046	999.471	1000.53	1523.5	1527.5	1531.5	1536.1	1539.6

OCCOCCOCCO [triethylene glycol] + O
[1]
Details	mass density, m1 = 0.0965 [kg/m3]	mass density, m1 = 0.2002 [kg/m3]	mass density, m1 = 0.292 [kg/m3]	mass density, m1 = 0.3986 [kg/m3]	mass density, m1 = 0.4988 [kg/m3]	speed of sound, m1 = 0.0965 [m/s]	speed of sound, m1 = 0.2002 [m/s]	speed of sound, m1 = 0.292 [m/s]	speed of sound, m1 = 0.3986 [m/s]	speed of sound, m1 = 0.4988 [m/s]
293.15 K	1000.31	1002.46	1004.29	1006.36	1008.22	1489.9	1498	1504.8	1513.1	1520.5
298.15 K	999.126	1001.27	1003.11	1005.14	1006.99	1503.5	1511	1517.6	1525.4	1532.2
303.15 K	997.728	999.858	1001.67	1003.69	1005.54	1514.8	1521.8	1528	1535.1	1541.7
308.15 K	996.095	998.216	1000.01	1002.02	1003.85	1525.1	1531.3	1536.9	1543.3	1549.4

O [water]
[2]
Details	speed of sound [m/s]
293.15 K	1481.1
298.15 K	1495.8
308.15 K	1519.1
